{"source": "ChEMBL document CHEMBL1201862", "about": "“PubChem BioAssay data set” (2004)", "assay_in_all_cases": "NCI anticancer screen, dose series, 48 h", "key": {"[1]": {"tested_on": "786-0"}, "[2]": {"tested_on": "A549"}, "[3]": {"tested_on": "ACHN"}, "[4]": {"tested_on": "CAKI-1"}, "[5]": {"tested_on": "COLO 205"}, "[6]": {"tested_on": "DLD-1"}, "[7]": {"tested_on": "DMS-114"}, "[8]": {"tested_on": "DMS-273"}, "[9]": {"tested_on": "EKVX"}, "[10]": {"tested_on": "HCC 2998"}, "[11]": {"tested_on": "HCT-116"}, "[12]": {"tested_on": "HL-60"}, "[13]": {"tested_on": "HOP-18"}, "[14]": {"tested_on": "HOP-62"}, "[15]": {"tested_on": "HOP-92"}, "[16]": {"tested_on": "HT-29"}, "[17]": {"tested_on": "KM-20L2"}, "[18]": {"tested_on": "KM12"}, "[19]": {"tested_on": "LOX IMVI"}, "[20]": {"tested_on": "LXFL 529"}, "[21]": {"tested_on": "M14"}, "[22]": {"tested_on": "M19-MEL"}, "[23]": {"tested_on": "Malme-3M"}, "[24]": {"tested_on": "NCI-H226"}, "[25]": {"tested_on": "NCI-H23"}, "[26]": {"tested_on": "NCI-H460"}, "[27]": {"tested_on": "NCI-H522"}, "[28]": {"tested_on": "OVCAR-3"}, "[29]": {"tested_on": "OVCAR-4"}, "[30]": {"tested_on": "OVCAR-5"}, "[31]": {"tested_on": "OVCAR-8"}, "[32]": {"tested_on": "RXF 393"}, "[33]": {"tested_on": "SF-268"}, "[34]": {"tested_on": "SF-295"}, "[35]": {"tested_on": "SF-539"}, "[36]": {"tested_on": "SK-MEL-28"}, "[37]": {"tested_on": "SK-MEL-2"}, "[38]": {"tested_on": "SN12C"}, "[39]": {"tested_on": "SNB-19"}, "[40]": {"tested_on": "SNB-75"}, "[41]": {"tested_on": "SNB-78"}, "[42]": {"tested_on": "SW-620"}, "[43]": {"tested_on": "TK-10"}, "[44]": {"tested_on": "U-251"}, "[45]": {"tested_on": "UACC-257"}, "[46]": {"tested_on": "UO-31"}, "[47]": {"tested_on": "XF498"}, "[48]": {"tested_on": "A498"}, "[49]": {"tested_on": "CCRF-CEM"}, "[50]": {"tested_on": "HCT-15"}, "[51]": {"tested_on": "IGROV-1"}, "[52]": {"tested_on": "K562"}, "[53]": {"tested_on": "MOLT-4"}, "[54]": {"tested_on": "RPMI-8226"}, "[55]": {"tested_on": "RXF 631"}, "[56]": {"tested_on": "SK-MEL-5"}, "[57]": {"tested_on": "SR"}, "[58]": {"tested_on": "UACC-62"}}, "note": "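Method: 48-hour compound exposure of cells in 96-well plates, five concentrations, linear interpolation of endpoints. Here, GI50 denotes the concentration required for 50% inhibition of growth.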 Calls of active or inactive are those of the source. Cut-off read from the data, not from the text of the source: active = GI50 up to about 1.1 µM and inactive = higher."}
{"smiles": "CC(NC(=O)C(=O)N/N=C1\\C[C@@H](c2ccccc2)Nc2ccccc21)c1ccccc1", "note": "(stereo partly specified)", "values": [{"measurement": "GI50", "setting": "[1]", "result": "> 100 µM (inactive)"}, {"measurement": "GI50", "setting": "[2]", "result": "> 100 µM (inactive)"}, {"measurement": "GI50", "setting": "[3]", "result": "36.1 µM (inactive)"}, {"measurement": "GI50", "setting": "[4]", "result": "> 100 µM (inactive)"}, {"measurement": "GI50", "setting": "[5]", "result": "48.2 µM (inactive)"}, {"measurement": "GI50", "setting": "[6]", "result": "> 100 µM (inactive)"}, {"measurement": "GI50", "setting": "[7]", "result": "97.1 µM (inactive)"}, {"measurement": "GI50", "setting": "[8]", "result": "7.55 µM (inactive)"}, {"measurement": "GI50", "setting": "[9]", "result": "17.1 µM (inactive)"}, {"measurement": "GI50", "setting": "[10]", "result": "> 100 µM (inactive)"}, {"measurement": "GI50", "setting": "[11]", "result": "> 100 µM (inactive)"}, {"measurement": "GI50", "setting": "[12]", "result": "8.57 µM (inactive)"}, {"measurement": "GI50", "setting": "[13]", "result": "< 0.01 µM (active)"}, {"measurement": "GI50", "setting": "[14]", "result": "> 100 µM (inactive)"}, {"measurement": "GI50", "setting": "[15]", "result": "20 µM (inactive)"}, {"measurement": "GI50", "setting": "[16]", "result": "80.7 µM (inactive)"}, {"measurement": "GI50", "setting": "[17]", "result": "> 100 µM (inactive)"}, {"measurement": "GI50", "setting": "[18]", "result": "> 100 µM (inactive)"}, {"measurement": "GI50", "setting": "[19]", "result": "> 100 µM (inactive)"}, {"measurement": "GI50", "setting": "[20]", "result": "77.4 µM (inactive)"}, {"measurement": "GI50", "setting": "[21]", "result": "> 100 µM (inactive)"}, {"measurement": "GI50", "setting": "[22]", "result": "> 100 µM (inactive)"}, {"measurement": "GI50", "setting": "[23]", "result": "20.5 µM (inactive)"}, {"measurement": "GI50", "setting": "[24]", "result": "10.4 µM (inactive)"}, {"measurement": "GI50", "setting": "[25]", "result": "> 100 µM (inactive)"}, {"measurement": "GI50", "setting": "[26]", "result": "> 100 µM (inactive)"}, {"measurement": "GI50", "setting": "[27]", "result": "> 100 µM (inactive)"}, {"measurement": "GI50", "setting": "[28]", "result": "> 100 µM (inactive)"}, {"measurement": "GI50", "setting": "[29]", "result": "29.3 µM (inactive)"}, {"measurement": "GI50", "setting": "[30]", "result": "> 100 µM (inactive)"}, {"measurement": "GI50", "setting": "[31]", "result": "> 100 µM (inactive)"}, {"measurement": "GI50", "setting": "[32]", "result": "53.7 µM (inactive)"}, {"measurement": "GI50", "setting": "[33]", "result": "94.6 µM (inactive)"}, {"measurement": "GI50", "setting": "[34]", "result": "> 100 µM (inactive)"}, {"measurement": "GI50", "setting": "[35]", "result": "> 100 µM (inactive)"}, {"measurement": "GI50", "setting": "[36]", "result": "> 100 µM (inactive)"}, {"measurement": "GI50", "setting": "[37]", "result": "53 µM (inactive)"}, {"measurement": "GI50", "setting": "[38]", "result": "1.06 µM (active)"}, {"measurement": "GI50", "setting": "[39]", "result": "> 100 µM (inactive)"}, {"measurement": "GI50", "setting": "[40]", "result": "10.7 µM (inactive)"}, {"measurement": "GI50", "setting": "[41]", "result": "> 100 µM (inactive)"}, {"measurement": "GI50", "setting": "[42]", "result": "> 100 µM (inactive)"}, {"measurement": "GI50", "setting": "[43]", "result": "> 100 µM (inactive)"}, {"measurement": "GI50", "setting": "[44]", "result": "> 100 µM (inactive)"}, {"measurement": "GI50", "setting": "[45]", "result": "0.382 µM (active)"}, {"measurement": "GI50", "setting": "[46]", "result": "33 µM (inactive)"}, {"measurement": "GI50", "setting": "[47]", "result": "18.3 µM (inactive)"}]}
{"smiles": "CNS(=O)(=O)NNS(=O)(=O)c1ccc(F)cc1", "values": [{"measurement": "GI50", "setting": "[1]", "result": "> 100 µM (inactive)"}, {"measurement": "GI50", "setting": "[48]", "result": "> 100 µM (inactive)"}, {"measurement": "GI50", "setting": "[2]", "result": "> 100 µM (inactive)"}, {"measurement": "GI50", "setting": "[3]", "result": "> 100 µM (inactive)"}, {"measurement": "GI50", "setting": "[4]", "result": "> 100 µM (inactive)"}, {"measurement": "GI50", "setting": "[49]", "result": "> 100 µM (inactive)"}, {"measurement": "GI50", "setting": "[5]", "result": "> 100 µM (inactive)"}, {"measurement": "GI50", "setting": "[6]", "result": "> 100 µM (inactive)"}, {"measurement": "GI50", "setting": "[7]", "result": "> 100 µM (inactive)"}, {"measurement": "GI50", "setting": "[8]", "result": "> 100 µM (inactive)"}, {"measurement": "GI50", "setting": "[9]", "result": "> 100 µM (inactive)"}, {"measurement": "GI50", "setting": "[11]", "result": "> 100 µM (inactive)"}, {"measurement": "GI50", "setting": "[50]", "result": "> 100", "unit": "µM"}, {"measurement": "GI50", "setting": "[12]", "result": "> 100 µM (inactive)"}, {"measurement": "GI50", "setting": "[14]", "result": "> 100 µM (inactive)"}, {"measurement": "GI50", "setting": "[16]", "result": "> 100 µM (inactive)"}, {"measurement": "GI50", "setting": "[51]", "result": "> 100 µM (inactive)"}, {"measurement": "GI50", "setting": "[52]", "result": "> 100 µM (inactive)"}, {"measurement": "GI50", "setting": "[17]", "result": "> 100 µM (inactive)"}, {"measurement": "GI50", "setting": "[18]", "result": "> 100 µM (inactive)"}, {"measurement": "GI50", "setting": "[19]", "result": "> 100 µM (inactive)"}, {"measurement": "GI50", "setting": "[20]", "result": "> 100 µM (inactive)"}, {"measurement": "GI50", "setting": "[21]", "result": "> 100 µM (inactive)"}, {"measurement": "GI50", "setting": "[22]", "result": "> 100 µM (inactive)"}, {"measurement": "GI50", "setting": "[53]", "result": "> 100 µM (inactive)"}, {"measurement": "GI50", "setting": "[24]", "result": "> 100 µM (inactive)"}, {"measurement": "GI50", "setting": "[25]", "result": "> 100 µM (inactive)"}, {"measurement": "GI50", "setting": "[26]", "result": "59.3 µM (inactive)"}, {"measurement": "GI50", "setting": "[27]", "result": "> 100 µM (inactive)"}, {"measurement": "GI50", "setting": "[28]", "result": "> 100 µM (inactive)"}, {"measurement": "GI50", "setting": "[29]", "result": "> 100 µM (inactive)"}, {"measurement": "GI50", "setting": "[31]", "result": "> 100 µM (inactive)"}, {"measurement": "GI50", "setting": "[54]", "result": "> 100 µM (inactive)"}, {"measurement": "GI50", "setting": "[32]", "result": "> 100 µM (inactive)"}, {"measurement": "GI50", "setting": "[55]", "result": "> 100 µM (inactive)"}, {"measurement": "GI50", "setting": "[33]", "result": "> 100 µM (inactive)"}, {"measurement": "GI50", "setting": "[34]", "result": "> 100 µM (inactive)"}, {"measurement": "GI50", "setting": "[35]", "result": "> 100 µM (inactive)"}, {"measurement": "GI50", "setting": "[37]", "result": "> 100 µM (inactive)"}, {"measurement": "GI50", "setting": "[56]", "result": "> 100 µM (inactive)"}, {"measurement": "GI50", "setting": "[39]", "result": "> 100 µM (inactive)"}, {"measurement": "GI50", "setting": "[40]", "result": "> 100 µM (inactive)"}, {"measurement": "GI50", "setting": "[57]", "result": "> 100 µM (inactive)"}, {"measurement": "GI50", "setting": "[42]", "result": "> 100 µM (inactive)"}, {"measurement": "GI50", "setting": "[44]", "result": "> 100 µM (inactive)"}, {"measurement": "GI50", "setting": "[45]", "result": "> 100 µM (inactive)"}, {"measurement": "GI50", "setting": "[58]", "result": "> 100 µM (inactive)"}, {"measurement": "GI50", "setting": "[46]", "result": "> 100 µM (inactive)"}, {"measurement": "GI50", "setting": "[47]", "result": "> 100 µM (inactive)"}]}
